From patent US20140051722A1, “TOPICAL LFA-1 ANTAGONISTS FOR USE IN LOCALIZED TREATMENT OF IMMUNE RELATED DISORDERS” (SARCODE BIOSCIENCE INC., priority 2008, published 2014)

Key:
[1] = test system: Plaque Psoriasis (PASI score); settings: >90% occupancy of LFA-1; cited from earlier work
GM-CSF = assay: SEB-stimulated cytokine release from human PBMC: GM-CSF; format: cell-based; settings: SEB 1 ng/ml
IL-4 = assay: SEB-stimulated cytokine release from human PBMC: IL-4; format: cell-based; settings: SEB 1 ng/ml
IL-10 = assay: SEB-stimulated cytokine release from human PBMC: IL-10; format: cell-based; settings: SEB 1 ng/ml
IL-1β = assay: SEB-stimulated cytokine release from human PBMC: IL-1β; format: cell-based; settings: SEB 1 ng/ml
IL-1α = assay: SEB-stimulated cytokine release from human PBMC: IL-1α; format: cell-based; settings: SEB 1 ng/ml
IL-5 = assay: SEB-stimulated cytokine release from human PBMC: IL-5; format: cell-based; settings: SEB 1 ng/ml
IL-13 = assay: SEB-stimulated cytokine release from human PBMC: IL-13; format: cell-based; settings: SEB 1 ng/ml
IL-3 = assay: SEB-stimulated cytokine release from human PBMC: IL-3; format: cell-based; settings: SEB 1 ng/ml
IL-6 = assay: SEB-stimulated cytokine release from human PBMC: IL-6; format: cell-based; settings: SEB 1 ng/ml
IP-10 = assay: SEB-stimulated cytokine release from human PBMC: IP-10; format: cell-based; settings: SEB 1 ng/ml
IL-12p40 = assay: SEB-stimulated cytokine release from human PBMC: IL-12p40; format: cell-based; settings: SEB 1 ng/ml
MCP-1 = assay: SEB-stimulated cytokine release from human PBMC: MCP-1; format: cell-based; settings: SEB 1 ng/ml

| Molecule | clinical improvement in PASI score [1] | EC50 (GM-CSF) | EC50 (IL-4) | EC50 (IL-10) | EC50 (IL-1β) | EC50 (IL-1α) | EC50 (IL-5) | EC50 (IL-13) | EC50 (IL-3) | EC50 (IL-6) | EC50 (IP-10) | EC50 (IL-12p40) | EC50 (MCP-1) |
| --- | --- | --- | --- | --- | --- | --- | --- | --- | --- | --- | --- | --- | --- |
| efalizumab: anti-LFA-1 monoclonal antibody, clinical trial in plaque psoriasis | greater than 50% | – | – | – | – | – | – | – | – | – | – | – | – |
| O=C(NC(Cc1cc(=O)[nH]c2ccccc12)C(=O)O)c1ccc(Cl)cc1 (stereo not shown) [Rebamipide] | – | > 1000 µM | > 1000 µM | > 1000 µM | > 1000 µM | > 1000 µM | > 1000 µM | > 1000 µM | > 1000 µM | > 1000 µM | > 1000 µM | > 1000 µM | > 1000 µM |
